pIC50: −log10 of the molar value.
How the values were obtained:
[1] = molecular target: T1, Tyrosine-protein kinase TXK (Homo sapiens) (UniProt P42681); experiment: Selectivity interaction (KinomeScan (DiscoverX)) EUB0000695a TXK; details: at 100 nM
T1 sequence (whole entry): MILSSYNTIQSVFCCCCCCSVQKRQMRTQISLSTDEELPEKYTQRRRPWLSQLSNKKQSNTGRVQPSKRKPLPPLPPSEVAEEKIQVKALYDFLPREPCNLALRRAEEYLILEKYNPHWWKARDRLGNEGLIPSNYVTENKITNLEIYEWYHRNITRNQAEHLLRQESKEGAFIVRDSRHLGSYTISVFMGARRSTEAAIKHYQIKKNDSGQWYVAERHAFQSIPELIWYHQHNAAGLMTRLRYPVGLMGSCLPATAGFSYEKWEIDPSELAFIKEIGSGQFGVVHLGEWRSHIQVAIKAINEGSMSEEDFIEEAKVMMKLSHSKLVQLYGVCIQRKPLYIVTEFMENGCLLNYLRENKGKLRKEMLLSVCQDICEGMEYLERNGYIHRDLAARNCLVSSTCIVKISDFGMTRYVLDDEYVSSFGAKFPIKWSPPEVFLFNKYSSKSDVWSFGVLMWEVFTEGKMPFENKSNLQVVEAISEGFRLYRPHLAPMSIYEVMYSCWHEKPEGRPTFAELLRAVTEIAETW

[2] = molecular target: Wee1-like protein kinase 2 (Homo sapiens) (UniProt P0C1S8); experiment: Selectivity interaction (KinomeScan (DiscoverX)) EUB0000695a WEE2; details: at 100 nM
[3] = molecular target: CDK4/Cyclin D3 (Homo sapiens) (UniProt P11802+P30281); experiment: (§1) Selectivity interaction (KinomeScan (DiscoverX)) EUB0001079a CDK4; assay type: protein-complex assay; details: at 1 µM
[4] = molecular target: Cyclin-dependent kinase 4/cyclin D1 (Homo sapiens) (UniProt P11802+P24385); experiment: as §1; assay type: protein-complex assay; details: at 1 µM
Adenosine receptor A2a = Adenosine receptor A2a (Homo sapiens, UniProt P29274); experiment: Selectivity interaction (Adenosine 2A receptor binding assay, human recombinant ) EUB0000877a ADORA2A
[5] = molecular target: Mitogen-activated protein kinase 8 (Homo sapiens, UniProt P45983); experiment: Selectivity interaction (KinomeScan (DiscoverX)) EUB0001619a MAPK8; details: at 1 µM
[6] = molecular target: Proto-oncogene tyrosine-protein kinase ROS (Homo sapiens) (UniProt P08922); experiment: Selectivity interaction (KinomeScan (DiscoverX)) EUB0001619a ROS1; details: at 1 µM
[7] = molecular target: Tyrosine-protein kinase Fer (Homo sapiens) (UniProt P16591); experiment: Selectivity interaction (SelectScreen profiling (Invitrogen)) EUB0000607a FER; details: at 2 µM
[8] = molecular target: Mitogen-activated protein kinase 7 (Homo sapiens) (UniProt Q13164); experiment: Selectivity interaction (KinomeScan (DiscoverX)) EUB0000607a MAPK7; details: at 10 µM
[9] = molecular target: T2, Serine/threonine-protein kinase TAO1 (Homo sapiens) (UniProt Q7L7X3); experiment: Selectivity interaction (KinomeScan (DiscoverX)) EUB0000618a TAOK1; details: at 10 µM
T2 sequence (whole entry): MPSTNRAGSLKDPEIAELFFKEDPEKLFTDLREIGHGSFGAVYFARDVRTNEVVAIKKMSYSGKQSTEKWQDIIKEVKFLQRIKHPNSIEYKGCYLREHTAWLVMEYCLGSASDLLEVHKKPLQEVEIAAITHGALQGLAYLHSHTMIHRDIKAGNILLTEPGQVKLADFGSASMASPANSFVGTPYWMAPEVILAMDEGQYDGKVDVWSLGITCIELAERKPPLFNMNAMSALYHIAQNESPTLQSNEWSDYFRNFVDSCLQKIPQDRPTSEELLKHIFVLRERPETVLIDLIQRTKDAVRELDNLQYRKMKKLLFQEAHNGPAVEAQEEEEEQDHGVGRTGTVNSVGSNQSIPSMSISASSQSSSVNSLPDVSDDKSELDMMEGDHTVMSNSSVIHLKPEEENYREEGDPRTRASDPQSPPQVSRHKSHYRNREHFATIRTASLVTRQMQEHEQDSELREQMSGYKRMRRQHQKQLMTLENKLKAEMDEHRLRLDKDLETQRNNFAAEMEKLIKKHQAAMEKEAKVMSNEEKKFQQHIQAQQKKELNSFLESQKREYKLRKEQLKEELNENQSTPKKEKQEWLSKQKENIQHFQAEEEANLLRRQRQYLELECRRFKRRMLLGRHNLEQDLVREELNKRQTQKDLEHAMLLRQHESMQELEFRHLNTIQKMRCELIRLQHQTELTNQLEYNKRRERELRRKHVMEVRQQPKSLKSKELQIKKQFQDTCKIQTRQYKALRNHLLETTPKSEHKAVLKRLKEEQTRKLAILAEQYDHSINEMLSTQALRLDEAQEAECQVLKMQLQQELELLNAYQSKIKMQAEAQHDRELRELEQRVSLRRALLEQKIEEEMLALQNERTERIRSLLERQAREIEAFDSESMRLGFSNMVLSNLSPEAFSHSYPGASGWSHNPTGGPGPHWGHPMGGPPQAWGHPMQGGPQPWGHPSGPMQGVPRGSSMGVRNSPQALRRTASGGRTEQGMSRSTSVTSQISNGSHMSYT

[10] = molecular target: STE20/SPS1-related proline-alanine-rich protein kinase (Homo sapiens) (UniProt Q9UEW8); experiment: Selectivity interaction (ActivX KiNativ screen (kinase selectivity in THP-1 cell lysates)) EUB0000639a STK39; assay type: subcellular; details: lysate
[11] = molecular target: T3, NUAK family SNF1-like kinase 1 (Homo sapiens) (UniProt O60285); details: at 10 µM
T3 sequence (whole entry): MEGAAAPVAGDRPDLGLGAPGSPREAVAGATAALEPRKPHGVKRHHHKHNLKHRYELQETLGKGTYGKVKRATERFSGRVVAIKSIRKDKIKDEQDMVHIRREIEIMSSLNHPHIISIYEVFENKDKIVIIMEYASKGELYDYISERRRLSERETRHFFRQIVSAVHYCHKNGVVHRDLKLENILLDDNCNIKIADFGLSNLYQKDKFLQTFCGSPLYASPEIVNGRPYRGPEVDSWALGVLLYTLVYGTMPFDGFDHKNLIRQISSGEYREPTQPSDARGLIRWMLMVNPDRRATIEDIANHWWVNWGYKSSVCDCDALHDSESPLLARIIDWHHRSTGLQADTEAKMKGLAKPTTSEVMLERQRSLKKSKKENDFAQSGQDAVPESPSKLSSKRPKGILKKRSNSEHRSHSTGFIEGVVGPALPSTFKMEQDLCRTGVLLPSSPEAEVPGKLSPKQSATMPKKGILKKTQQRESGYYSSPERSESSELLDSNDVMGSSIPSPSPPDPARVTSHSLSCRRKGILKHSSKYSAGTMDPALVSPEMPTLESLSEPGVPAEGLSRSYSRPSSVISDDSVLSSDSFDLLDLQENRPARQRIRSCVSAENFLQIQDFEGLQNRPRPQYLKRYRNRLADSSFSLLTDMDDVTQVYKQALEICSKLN

Sequence of Wee1-like protein kinase 2 (Homo sapiens) (P0C1S8 whole entry, looked up): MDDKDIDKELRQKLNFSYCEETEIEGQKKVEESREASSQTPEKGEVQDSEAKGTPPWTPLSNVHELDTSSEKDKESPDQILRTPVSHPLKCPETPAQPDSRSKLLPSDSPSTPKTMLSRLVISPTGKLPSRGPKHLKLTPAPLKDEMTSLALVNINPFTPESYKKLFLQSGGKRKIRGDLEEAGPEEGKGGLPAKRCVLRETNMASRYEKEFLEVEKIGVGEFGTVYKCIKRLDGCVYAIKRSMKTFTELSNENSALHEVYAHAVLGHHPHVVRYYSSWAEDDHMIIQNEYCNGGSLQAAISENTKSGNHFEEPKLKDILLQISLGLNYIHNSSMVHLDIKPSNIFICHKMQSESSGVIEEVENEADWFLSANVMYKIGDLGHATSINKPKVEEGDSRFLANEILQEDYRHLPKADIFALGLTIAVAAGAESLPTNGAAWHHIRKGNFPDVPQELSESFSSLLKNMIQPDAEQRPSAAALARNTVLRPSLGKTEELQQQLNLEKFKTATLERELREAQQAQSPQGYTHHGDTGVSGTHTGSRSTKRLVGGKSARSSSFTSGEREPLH
Sequence of Mitogen-activated protein kinase 8 (P45983 whole entry): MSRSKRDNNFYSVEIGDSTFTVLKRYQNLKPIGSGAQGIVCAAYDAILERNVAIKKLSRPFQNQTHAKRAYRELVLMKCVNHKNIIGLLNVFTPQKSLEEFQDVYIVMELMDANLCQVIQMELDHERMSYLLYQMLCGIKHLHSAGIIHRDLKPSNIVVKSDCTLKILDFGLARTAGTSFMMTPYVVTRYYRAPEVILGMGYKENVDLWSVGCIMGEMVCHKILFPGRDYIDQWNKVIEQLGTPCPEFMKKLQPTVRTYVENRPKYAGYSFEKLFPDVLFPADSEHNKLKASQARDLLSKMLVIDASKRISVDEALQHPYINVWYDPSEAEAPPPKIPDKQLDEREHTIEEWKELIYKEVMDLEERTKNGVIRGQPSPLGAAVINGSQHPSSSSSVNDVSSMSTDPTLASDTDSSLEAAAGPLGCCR
Sequence of Tyrosine-protein kinase Fer (Homo sapiens) (P16591 whole entry, looked up): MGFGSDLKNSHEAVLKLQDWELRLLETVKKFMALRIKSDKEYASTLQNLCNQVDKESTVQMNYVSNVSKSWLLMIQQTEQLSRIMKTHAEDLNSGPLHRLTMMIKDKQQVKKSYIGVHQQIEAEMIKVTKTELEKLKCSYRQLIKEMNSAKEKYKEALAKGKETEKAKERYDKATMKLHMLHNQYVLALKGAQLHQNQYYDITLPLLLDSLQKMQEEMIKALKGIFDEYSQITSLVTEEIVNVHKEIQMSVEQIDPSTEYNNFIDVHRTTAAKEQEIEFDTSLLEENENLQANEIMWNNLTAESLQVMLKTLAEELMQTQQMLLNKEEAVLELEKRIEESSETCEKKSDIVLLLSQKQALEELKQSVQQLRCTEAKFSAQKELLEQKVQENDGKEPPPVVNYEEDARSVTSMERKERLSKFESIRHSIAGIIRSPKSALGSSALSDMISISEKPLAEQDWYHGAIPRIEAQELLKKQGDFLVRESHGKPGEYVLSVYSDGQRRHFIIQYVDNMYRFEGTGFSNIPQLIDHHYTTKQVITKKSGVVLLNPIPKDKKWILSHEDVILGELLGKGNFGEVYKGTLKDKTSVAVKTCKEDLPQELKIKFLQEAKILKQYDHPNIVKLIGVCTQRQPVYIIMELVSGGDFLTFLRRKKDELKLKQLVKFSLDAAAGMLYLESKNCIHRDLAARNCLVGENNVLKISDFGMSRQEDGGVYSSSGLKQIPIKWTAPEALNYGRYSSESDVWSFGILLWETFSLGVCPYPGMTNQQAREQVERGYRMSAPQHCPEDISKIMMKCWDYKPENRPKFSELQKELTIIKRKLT
Sequence of Proto-oncogene tyrosine-protein kinase ROS (Homo sapiens) (P08922 whole entry): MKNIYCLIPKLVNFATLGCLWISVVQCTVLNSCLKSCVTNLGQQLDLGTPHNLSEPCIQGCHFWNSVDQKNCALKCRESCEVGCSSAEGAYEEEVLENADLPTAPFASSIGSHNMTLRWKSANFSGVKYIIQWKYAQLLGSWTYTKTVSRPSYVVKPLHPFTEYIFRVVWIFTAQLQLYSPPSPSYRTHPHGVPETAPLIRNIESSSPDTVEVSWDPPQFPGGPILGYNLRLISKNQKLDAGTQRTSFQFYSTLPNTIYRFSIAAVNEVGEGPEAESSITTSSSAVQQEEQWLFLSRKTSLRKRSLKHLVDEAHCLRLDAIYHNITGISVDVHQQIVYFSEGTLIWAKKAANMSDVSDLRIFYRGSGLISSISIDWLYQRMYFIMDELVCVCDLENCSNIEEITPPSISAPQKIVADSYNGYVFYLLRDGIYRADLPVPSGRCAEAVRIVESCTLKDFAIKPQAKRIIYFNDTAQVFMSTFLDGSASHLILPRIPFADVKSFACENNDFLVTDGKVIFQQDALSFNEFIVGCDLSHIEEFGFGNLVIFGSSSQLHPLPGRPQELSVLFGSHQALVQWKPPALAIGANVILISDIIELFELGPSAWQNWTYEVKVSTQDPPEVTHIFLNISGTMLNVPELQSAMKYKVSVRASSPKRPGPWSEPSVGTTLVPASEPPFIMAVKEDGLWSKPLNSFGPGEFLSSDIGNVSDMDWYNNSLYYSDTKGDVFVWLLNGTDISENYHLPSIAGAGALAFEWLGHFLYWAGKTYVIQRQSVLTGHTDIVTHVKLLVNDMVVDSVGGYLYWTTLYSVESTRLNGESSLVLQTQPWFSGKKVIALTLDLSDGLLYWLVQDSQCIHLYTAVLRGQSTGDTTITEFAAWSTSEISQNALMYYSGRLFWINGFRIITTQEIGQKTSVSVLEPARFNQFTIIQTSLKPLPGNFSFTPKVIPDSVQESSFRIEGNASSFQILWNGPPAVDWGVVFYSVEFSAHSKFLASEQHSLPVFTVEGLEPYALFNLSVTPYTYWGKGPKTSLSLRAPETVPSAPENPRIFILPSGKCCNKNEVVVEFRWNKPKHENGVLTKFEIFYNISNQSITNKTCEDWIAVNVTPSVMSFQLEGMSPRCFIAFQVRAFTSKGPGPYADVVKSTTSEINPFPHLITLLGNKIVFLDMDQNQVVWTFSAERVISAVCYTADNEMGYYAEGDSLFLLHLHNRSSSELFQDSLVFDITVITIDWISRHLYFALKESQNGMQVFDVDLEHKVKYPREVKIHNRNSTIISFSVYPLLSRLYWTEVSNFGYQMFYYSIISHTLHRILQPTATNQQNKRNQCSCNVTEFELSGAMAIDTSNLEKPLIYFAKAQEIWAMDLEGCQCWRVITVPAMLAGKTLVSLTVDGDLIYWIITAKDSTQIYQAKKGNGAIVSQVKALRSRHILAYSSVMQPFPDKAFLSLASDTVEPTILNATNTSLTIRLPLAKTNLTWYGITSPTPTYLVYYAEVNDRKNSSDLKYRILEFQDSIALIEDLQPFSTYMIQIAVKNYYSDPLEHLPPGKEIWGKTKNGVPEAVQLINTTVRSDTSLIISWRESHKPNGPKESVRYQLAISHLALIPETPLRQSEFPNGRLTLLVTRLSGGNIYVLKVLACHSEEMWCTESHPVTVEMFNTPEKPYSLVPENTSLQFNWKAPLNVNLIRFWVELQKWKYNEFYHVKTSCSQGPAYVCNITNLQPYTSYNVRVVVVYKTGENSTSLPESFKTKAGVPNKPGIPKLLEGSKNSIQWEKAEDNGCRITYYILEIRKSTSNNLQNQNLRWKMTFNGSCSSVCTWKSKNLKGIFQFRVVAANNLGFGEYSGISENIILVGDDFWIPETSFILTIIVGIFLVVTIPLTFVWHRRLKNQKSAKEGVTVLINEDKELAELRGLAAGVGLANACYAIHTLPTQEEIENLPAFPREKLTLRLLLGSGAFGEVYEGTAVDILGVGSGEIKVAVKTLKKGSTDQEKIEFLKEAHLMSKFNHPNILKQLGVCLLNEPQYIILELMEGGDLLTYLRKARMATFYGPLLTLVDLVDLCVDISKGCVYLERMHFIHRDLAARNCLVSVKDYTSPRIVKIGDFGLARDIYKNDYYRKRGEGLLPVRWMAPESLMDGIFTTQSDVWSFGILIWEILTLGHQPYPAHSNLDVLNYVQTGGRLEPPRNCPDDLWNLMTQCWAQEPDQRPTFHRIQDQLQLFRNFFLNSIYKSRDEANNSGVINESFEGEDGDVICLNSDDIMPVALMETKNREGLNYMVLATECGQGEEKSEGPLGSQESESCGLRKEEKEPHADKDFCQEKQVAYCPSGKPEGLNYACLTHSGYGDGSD
Sequence of Mitogen-activated protein kinase 7 (Homo sapiens) (Q13164 2-816 limits assumed): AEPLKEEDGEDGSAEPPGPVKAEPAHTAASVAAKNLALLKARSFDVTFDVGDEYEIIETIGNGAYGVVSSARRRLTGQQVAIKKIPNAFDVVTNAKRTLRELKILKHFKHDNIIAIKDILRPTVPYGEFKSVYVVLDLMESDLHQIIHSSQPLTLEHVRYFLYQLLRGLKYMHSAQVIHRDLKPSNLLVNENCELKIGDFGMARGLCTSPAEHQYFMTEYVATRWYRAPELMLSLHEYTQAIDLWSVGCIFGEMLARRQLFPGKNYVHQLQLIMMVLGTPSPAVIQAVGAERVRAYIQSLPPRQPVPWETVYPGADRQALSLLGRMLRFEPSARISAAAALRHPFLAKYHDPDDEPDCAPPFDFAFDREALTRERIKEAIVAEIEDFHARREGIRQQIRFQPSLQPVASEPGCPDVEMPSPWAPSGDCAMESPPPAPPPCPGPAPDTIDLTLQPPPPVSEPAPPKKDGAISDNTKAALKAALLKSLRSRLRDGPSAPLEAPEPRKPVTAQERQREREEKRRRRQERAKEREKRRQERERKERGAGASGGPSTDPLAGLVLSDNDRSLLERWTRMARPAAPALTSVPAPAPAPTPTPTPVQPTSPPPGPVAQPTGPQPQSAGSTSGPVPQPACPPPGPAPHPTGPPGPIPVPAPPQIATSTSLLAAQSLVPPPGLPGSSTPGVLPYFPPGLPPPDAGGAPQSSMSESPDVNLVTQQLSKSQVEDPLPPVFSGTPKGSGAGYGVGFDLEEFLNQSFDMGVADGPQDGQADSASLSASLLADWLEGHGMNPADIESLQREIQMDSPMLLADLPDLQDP

## Cc1cc(F)c(C(=O)Nc2cccc(-c3nncn3C(C)C)n2)cc1-n1cnc(C2CC2)c1
[1]
  % of control: 98%
[2]
  % of control: 100%

## Nc1cnc(N2CCc3cc(S(=O)(=O)Nc4c(F)cc(Cl)cc4F)cc(N4CCCC4=O)c32)nc1 [TP-020n]
[3]
  % of control: 86%
[4]
  % of control: 97%

## CCC(=O)N1CC[C@H](Nc2ncnc3c2CN(c2cnc(OC)c(C(F)(F)F)c2)CC3)C1 [LENIOLISIB]
Adenosine receptor A2a
  pIC50: < 4.52

## N#Cc1cccc(-c2c[nH]c3ncnc(N4CCOCC4)c23)c1
[5]
  % of control: 62%
[6]
  % of control: 90%

## CNC(=O)Nc1ccc(-c2nc(N3CC4CCC(C3)O4)c3cnn(C4CCC5(CC4)OCCO5)c3n2)cc1
[7]
  % of inhibition: 5%
[8]
  % of control: 100%

## O[C@H]1CC[C@H](Nc2ncc3nc(Nc4c(F)cc(F)cc4F)n([C@H]4CCOC4)c3n2)CC1
[9]
  % of control: 81%

## CC[C@@H]1[C@H](F)C(=O)N[C@@H]1COc1nccc2cc(C(N)=O)c(OC)cc12 [ZIMLOVISERTIB]
[10]; at 0.01 µM
  % of inhibition: 3.8%
[10]; at 0.04 µM
  % of inhibition: -1.3%
[10]; at 0.2 µM
  % of inhibition: 2.2%
[10]; at 1 µM
  % of inhibition: -9.4%
[10]; at 5 µM
  % of inhibition: 1.5%

## CCN(CC)CCCCNc1ncc2cc(-c3cc(OC)cc(OC)c3)c(NC(=O)NC(C)(C)C)nc2n1
[11]
  % of control: 100%
